This note sets out measurements from patent publication US20250170108A1, “CHEMOTHERAPY FOR CANCER USING AZABICYCLO COMPOUND” (TAIHO PHARMACEUTICAL CO., LTD., priority 2017, published 2025).

In data set [1] the test system is tumor infiltrating leucocytes (CD8 positive cells, regulatory T-cells). Nature of the data set: Immunostimulatory action: flow cytometric analysis of tumor infiltrating lymphocytes in MC38 transplanted model (Example 2). It is filed as in vivo, mouse. On the procedure:
Mouse bowel cancer cell line MC38 was cultured using a RPMI1640 (Waco Pure Chemical Industries, Ltd.) medium containing 10% FBS. MC38 was subcultured at a ratio of 1:5 to 1:10 once or twice a week in an incubator with 5% CO2 at 37° C.
A cell suspension with a concentration of 2×10^6 cells/0.1 mL was transplanted subcutaneously in the vicinity of the right backmost rib bone of a 6-week-old C57BL/6NJCrI mouse (Charles River Laboratories Japan Inc.).
The tumor was grown until reaching a tumor volume (TV) of 110 to 360 mm^3 after the transplantation. Degimatic Caliper was used for tumor diameter measurement. The major diameter and the minor diameter of the tumor were measured, and TV was calculated from the following equation.
By a stratified random allocation method using TV as an index, 5 animals were allocated to each group. The day when grouping (n=5) was performed was defined as Day 1.
Agents prepared by the same method as described in Example 1 were used for administration. Anti-mouse PD-1 antibody (anti-mPD-1 Ab), CD279(PD-1)Monoclonal Antibody (RMP1-14), eBioscience (Thermo Fisher Scientific), was used as an anti-mouse PD-1 antibody, and intraperitoneally administered at a dose of 0.05 mg/body on the first day of administration (Day 1). Compound 1 was orally administered at a dose of 14 mg/kg/day once a day on Days 1-5 and 8-9.
For detecting expression of immunity-related factors, flow cytometric analysis was performed for immunological monitoring. On Day 10, the tumor was sampled, and tumor infiltrating lymphocytes were then prepared using Tumor Dissociation Kit, mouse (Miltenyi Biotec). Thereafter, the antibody was stained using FoxP3/Transcription Factor Staining Buffer Set (thermo Fisher Scientific), and analysis was then performed using Flow Cytometer FACSVerse (BD Bioscience). […]

The nature of data set [2]: Body weight change ratio in MC38 transplanted model (Example 3). It is filed as in vivo, mouse. Conditions: Compound 1 14 mg/kg/day p.o. days 1-5, 8-12, 15-19. On the procedure:
(§1) An electronic balance for animals was used for body weight measurement. The body weight change ratio on the nth day (BWCn) was calculated from the body weight on the nth day (BWn) in accordance with the following equation.
The same procedure as described in Example 1 was carried out except that the anti-mouse PD-L1 antibody or the anti-CTLA-4 antibody was used instead of the anti-mouse PD-1 antibody.
The anti-mouse PD-L1 antibody (anti-mPD-L1 Ab) was prepared by diluting InVivoMab anti-mouse PD-L1 (B7-H1) (Clone: 10F.9G2, Bio X cell Co.) to a predetermined concentration with Otsuka Normal Saline immediately before administration. On the first day of administration (day 1), the diluted product was intraperitoneally administered using the anti-mouse PD-L1 antibody at a dose of 0.05 mg/body. The anti-mouse CTLA-4 antibody (anti-mCTLA-4 Ab) was prepared by diluting InVivoMab anti-mouse CTLA-4 (CD152) (Clone: 9H10, Bio X cell Co.) to a predetermined concentration with Otsuka Normal Saline immediately before administration. On the first day of administration (day 1), the diluted product was intraperitoneally administered using the anti-mouse CTLA-4 antibody at a dose of 0.05 mg/body.

A short description of data set [3]: Body weight change ratio in MC38 transplanted model (Example 1). Type of data set: in vivo, mouse. On the procedure: as §1
(§2) An appropriate amount of water for injection described in the Japanese Pharmacopeia was added for adjusting hypromellose concentration to 0.5 w/v %, and the mixture was then stirred with a stirrer to completely dissolve hypromellose, to prepare a 0.5% aqueous hypromellose solution. Compound 1 was ground with an agate mortar, and then suspended to a predetermined concentration with the 0.5% aqueous hypromellose solution, and ultrasonic treatment was performed to obtain a homogeneous suspension. The suspension containing Compound 1 was orally administered once a day over 5 consecutive days at a dose of 10 mg/kg/day or 14 mg/kg/day, followed by cessation of administration for 2 days, and these processes were repeated three times.
(§3) The anti-mouse PD-1 antibody (anti-mPD-1 Ab) was prepared by diluting InVivoMab anti-mouse PD-1 (CD279) (Clone: RMP-1-14, Bio X cell Co.) to a predetermined concentration with Otsuka Normal Saline immediately before administration. On the first day of administration (day 1), the diluted product was intraperitoneally administered as the anti-mouse PD-1 antibody at a dose of 0.05 mg/body.

In data set [4] the test system is mouse bowel cancer cell line MC38. As to the kind of experiment: Antitumor effect of Compound 1 and anti-mouse PD-L1 or anti-mouse CTLA-4 antibody in bowel cancer cell transplanted model (Example 3). Type of data set: in vivo. On the procedure:
(§4) Mouse bowel cancer cell line MC38 was obtained from Dr. Yoshihiro Hayakawa (University of Toyama, Toyama, Japan), and cultured in a RPMI1640 (Sigma-Aldrich) medium (culture solution) containing 10% fetal bovine serum (FBS). MC38 was subcultured at a ratio of 1:3 to 1:5 once or twice a week in an incubator with 5% CO2 at 37° C.
(§5) A cell suspension with a concentration of 2×10^6 cells/0.1 mL was transplanted subcutaneously in the vicinity of the right backmost rib bone of a 6-week-old C57BL/6JJcI mouse (CLEA Japan, Inc.).
(§6) The tumor was grown until reaching a tumor volume (TV) of 50 to 300 mm^3 after the transplantation. Degimatic Caliper was used for tumor diameter measurement. The major diameter and the minor diameter of the tumor were measured, and TV was calculated from the following equation.
(§7) By a stratified random allocation method using TV as an index, 6 animals were allocated to each group. The day when grouping (n=6) was performed was defined as Day 0.
(§8) The relative tumor volume (RTV) and the relative tumor volume change ratio (T/C) were calculated from TV.
as §2
The same procedure as described in Example 1 was carried out except that the anti-mouse PD-L1 antibody or the anti-CTLA-4 antibody was used instead of the anti-mouse PD-1 antibody. […]

Data set [5] shares this test system. Nature of the data set: Antitumor effect of Compound 1 and anti-mouse PD-1 antibody in bowel cancer cell transplanted model (Example 1). Conditions: for RTV Day 22 (mean ± SD): MC38 transplanted mice; for T/C (%): Day 22. Type of data set: in vivo. On the procedure: as §4, §5, §6, §7, §8
RTV and T/C were calculated from the following equation.
as §2, §3

The mark [6] stands for this setting: Day 10, Compound 1 14 mg/kg/day p.o. Days 1-5 and 8-9, Dunnett test.
[7] abbreviates: Compound 1 10 mg/kg/day p.o. days 1-5, 8-12, 15-19.
The mark [8] stands for this setting: Compound 1 14 mg/kg/day p.o. days 1-5, 8-12, 15-19.

As for `CCc1cc(C(N)=O)ccc1-n1nc(C(C)C)c2c(-n3cnc(-c4cnn(C)c4)c3)ccnc21` [Compound 1, 3-ethyl-4-{3-isopropyl-4-(4-(1-methyl-1H-pyrazol-4-yl)-1H-imidazol-1-yl)-1H-pyrazolo[3,4-b]pyridin-1-yl}benzamide], the “ratio of CD8 positive cells in leucocytes (CD45 positive cells) as compared to the control group” value in data set [1] (setting [6]) is recorded as “significantly higher”. In addition, the “ratio of regulatory T-cells in T-cells as compared to the control group” value in data set [1] (setting [6]) is recorded as “significantly lower”. Besides, the immunostimulatory activity result in data set [1] (conclusion from Example 2) is “shows immunostimulatory activity”. Moreover, the results for the “BWC(%) Day 22 Mean” value in data set [2], in data set [3] (setting [7]) and in data set [3] (setting [8]) were 6.63%, 13.5% and 12.8%, respectively. For the same compound, the “RTV on Day 22 as compared to the control group” value in data set [4] (Aspin-Welch's t-test, Example 3) is listed as “significantly lower RTV”; in data set [5] (Aspin-Welch's t-test, Example 1), “significantly lower RTV”. The “RTV Day 22 (mean ± SE)” value in data set [4] (Compound 1 14 mg/kg/day p.o. days 1-5, 8-12, 15-19, MC38 transplanted mice) is 8.32 ± 0.51. The “T/C (%)” value came out at 49.7% in data set [4] (Day 22, Compound 1 14 mg/kg/day p.o. days 1-5, 8-12, 15-19); 41.7% in data set [5] (setting [7]); 29.4% in data set [5] (setting [8]). In addition, the “RTV Day 22 (mean ± SD)” value in data set [5] (setting [7]) came out at 7.93 ± 1.29; in data set [5] (setting [8]), 5.59 ± 0.92.
